Reference: paper PMC9029893 (International Journal of Molecular Sciences, 2022)

Assays:
[1] = test system: tissue plasminogen activator (t-PA) release from HUVEC; assay: t-PA release from HUVEC (ELISA); format: cell-based, human; conditions: 24 h, HUVEC supernatants
Experimental: The influence on tissue plasminogen activator release from HUVECs was assessed using an ELISA kit (Abcam, Cambridge, UK). HUVECs seeded at a density of 10,000 per well on 96-well plates were co-incubated with compounds 1–5 at the concentrations of 0.3 and 1.0 mM for an additional 24 h (37 °C, 5% CO2). The cell supernatants were discarded into Eppendorf tubes and preserved at −20° C until analysis. Before the tests, the samples were thawed at room temperature for 15 min, and diluted 2.5-fold with diluent in Elisa kit. The measurements of t-PA concentrations in cell supernatants were conducted according to the manufacturer’s protocol using 3,3’,5,5’-tetramethylbenzidine (TMB) as a chromogenic substrate. The concentration of t-PA in HUVEC supernatants was determined using a calibration curve (R^2 = 0.9936). The results are presented as mean ± SD, n = 6. The CV for the applied method was 7.21%.

[2] = test system: human plasma (platelet poor plasma); assay: Basic coagulation tests: PT, INR, APTT, TT; format: biochemical; conditions: for TT: thrombin 3.0 UNIH/mL
Experimental: The blood was collected into vacuum tubes stuffed with 3.2% buffered sodium citrate. Platelet poor plasma (PPP) was obtained by centrifugation at 3000× g for 10 min at room temperature using a Micro 22R centrifuge (Hettich Zentrifugen, Tuttlingen, Germany). The obtained PPP was stored in small aliquots for up to one month at –30° C. Before each experiment, PPP was restored at 37 °C for 15 min. Once thawed, the PPP was not frozen again nor used for retesting.
The effects of biguanidines (1–5) on the basic coagulation parameters (PT, INR, APTT, and TT) were carried out using a CoagChrom-3003 coagulometer (Bio-Ksel, Grudziądz, Poland), according to the routine laboratory diagnostic procedure. The studies were performed in multiplicate (n = 4–7). The control samples containing distilled water and methanol (1:1) were also included.
The results are presented as mean ± standard deviation (SD). The methods were validated, and coefficients of variability for all experiments were calculated (PT: CV = 10.25%, APTT: CV = 8.55%, TT: CV = 4.87%). The reference values for each test are as follows: PT: 9.7–14.6 s; APTT: 26.7–40.0 s; TT: 14.0–18.0 s for 3.0 UNIH/mL of thrombin.

[3] = test system: clot formation and fibrinolysis in human citrate plasma; assay: Clot formation and fibrinolysis test (CL-test); format: biochemical
Experimental: The effects of the […] on overall hemostasis potential by means of clot formation and fibrinolysis test (CL-test) were further tested based on the continuous measurement of the changes in optical transmittance over time, as described by Kostka et al. and Sikora et al.. These experiments were conducted using 470 µL of three-fold diluted human citrate plasma, 10 µL of the tested compounds, and 10 µL t-PA (final concentration in a sample 220 ng/mL). The clot formation was triggered by thrombin (10 µL, final concentration 0.5 IU/mL). The clot formation and lysis curves were determined at a wavelength of 405 nm with a spectrophotometer (Cecil CE 2021; London, UK) with circulating thermostated water (37 °C) and a Model 300 Electronic Stirrer (Rank Brothers Ltd., Cambridge, UK). The experiments were conducted in multiplicate (n = 5–7), and the results are presented as mean ± SD.
The received graphs were analyzed using dedicated software to determine the kinetic parameters of clot formation, stabilization, and fibrinolysis. The following parameters of clot formation were determined: Tt—thrombin time (s), Fmax—maximum clotting (%T), Tf—plasma clotting time (s), Fvo—initial plasma clotting velocity (%T/min), Sr—area under the clot formation curve (%Txmin). The parameters of the clot stabilization phase comprised Tc—clot stabilization time (s), Sc—area under the curve of stable clot formation (%Txmin). The parameters of fibrinolysis comprised Lmax—maximum lysis (%T), Tl—fibrinolysis time (s), Lvo—initial clot fibrinolysis velocity (%T/min), Sf—area under the fibrinolysis curve (%Txmin). Additionally, the overall potential of clot formation and fibrinolysis (CLAUC, (%Txmin)) and total time of the process of clot formation and fibrinolysis (T, (s)) were also estimated.

CCCCS(=O)(=O)NC(N)=NC(=N)N(C)C [Compound 1]
Released t-PA ([1]; 0.3 mM): 2427.2 ± 246.0 pg/mL | Released t-PA ([1]; 1.0 mM): 1709.5 ± 219.1 pg/mL | APTT ([2]; 0.006 mM): 35.12 ± 4.75 s | INR ([2]; 0.006 mM): 1.04 ± 0.19 | PT ([2]; 0.006 mM): 13.04 ± 2.41 s | TT ([2]; 0.006 mM): 14.03 ± 0.94 s | APTT ([2]; 0.06 mM): 33.36 ± 1.78 s | INR ([2]; 0.06 mM): 1.11 ± 0.23 | PT ([2]; 0.06 mM): 12.78 ± 1.86 s | TT ([2]; 0.06 mM): 12.98 ± 1.08 s | APTT ([2]; 0.3 mM): 33.76 ± 2.53 s | INR ([2]; 0.3 mM): 1.08 ± 0.22 | PT ([2]; 0.3 mM): 13.46 ± 2.71 s | TT ([2]; 0.3 mM): 13.90 ± 1.24 s | APTT ([2]; 0.6 mM): 34.68 ± 3.31 s | INR ([2]; 0.6 mM): 1.05 ± 0.19 | PT ([2]; 0.6 mM): 13.08 ± 2.36 s | TT ([2]; 0.6 mM): 12.64 ± 1.31 s | APTT ([2]; 1.5 mM): 34.68 ± 5.21 s | INR ([2]; 1.5 mM): 1.08 ± 0.23 | PT ([2]; 1.5 mM): 13.48 ± 2.93 s | TT ([2]; 1.5 mM): 13.03 ± 0.86 s | Fmax—maximum clotting ([3]; 0.06 mM): 73.71 ± 5.89 %T | Fvo—initial plasma clotting velocity ([3]; 0.06 mM): 230.57 ± 34.38 %T/min | Lmax—maximum lysis ([3]; 0.06 mM): 70.23 ± 10.26 %T | Lvo—initial clot fibrinolysis velocity ([3]; 0.06 mM): 21.40 ± 6.16 %T/min | Sc—area under the curve of a stable clot formation ([3]; 0.06 mM): 389.25 ± 160.80 %T x min | Sf—area under the clot formation curve ([3]; 0.06 mM): 50.97 ± 7.65 %T x min | Sl (area under the fibrinolysis curve) ([3]; 0.06 mM): 193.67 ± 107.75 %T x min | S—overall potential of clot formation and fibrinolysis (CLAUC) ([3]; 0.06 mM): 633.89 ± 269.28 %T x min | Tc—clot stabilization time ([3]; 0.06 mM): 324.86 ± 130.79 s | Tf—plasma clotting time ([3]; 0.06 mM): 58.61 ± 9.61 s | Tl—fibrinolysis time ([3]; 0.06 mM): 253.57 ± 104.13 s | Tt—thrombin time ([3]; 0.06 mM): 18.97 ± 3.08 s | T—total time of the process of clot formation and fibrinolysis ([3]; 0.06 mM): 656.01 ± 236.60 s | Fmax—maximum clotting ([3]; 0.3 mM): 71.97 ± 6.78 %T | Fvo—initial plasma clotting velocity ([3]; 0.3 mM): 227.86 ± 37.81 %T/min | Lmax—maximum lysis ([3]; 0.3 mM): 69.09 ± 10.62 %T | Lvo—initial clot fibrinolysis velocity ([3]; 0.3 mM): 18.53 ± 7.15 %T/min | Sc—area under the curve of a stable clot formation ([3]; 0.3 mM): 407.13 ± 154.90 %T x min | Sf—area under the clot formation curve ([3]; 0.3 mM): 52.45 ± 10.08 %T x min | Sl (area under the fibrinolysis curve) ([3]; 0.3 mM): 186.37 ± 104.97 %T x min | S—overall potential of clot formation and fibrinolysis (CLAUC) ([3]; 0.3 mM): 645.95 ± 264.51 %T x min | Tc—clot stabilization time ([3]; 0.3 mM): 347.71 ± 124.84 s | Tf—plasma clotting time ([3]; 0.3 mM): 61.36 ± 11.85 s | Tl—fibrinolysis time ([3]; 0.3 mM): 260.57 ± 95.60 s | Tt—thrombin time ([3]; 0.3 mM): 16.81 ± 3.05 s | T—total time of the process of clot formation and fibrinolysis ([3]; 0.3 mM): 686.46 ± 226.50 s | Fmax—maximum clotting ([3]; 0.6 mM): 70.77 ± 5.62 %T | Fvo—initial plasma clotting velocity ([3]; 0.6 mM): 217.71 ± 37.42 %T/min | Lmax—maximum lysis ([3]; 0.6 mM): 69.47 ± 6.67 %T | Lvo—initial clot fibrinolysis velocity ([3]; 0.6 mM): 18.64 ± 4.38 %T/min | Sc—area under the curve of a stable clot formation ([3]; 0.6 mM): 388.20 ± 131.19 %T x min | Sf—area under the clot formation curve ([3]; 0.6 mM): 53.53 ± 5.26 %T x min | Sl (area under the fibrinolysis curve) ([3]; 0.6 mM): 178.97 ± 84.17 %T x min | S—overall potential of clot formation and fibrinolysis (CLAUC) ([3]; 0.6 mM): 620.70 ± 216.54 %T x min | Tc—clot stabilization time ([3]; 0.6 mM): 338.00 ± 114.76 s | Tf—plasma clotting time ([3]; 0.6 mM): 63.63 ± 6.31 s | Tl—fibrinolysis time ([3]; 0.6 mM): 267.71 ± 99.31 s | Tt—thrombin time ([3]; 0.6 mM): 16.75 ± 4.87 s | T—total time of the process of clot formation and fibrinolysis ([3]; 0.6 mM): 686.09 ± 216.29 s | Fmax—maximum clotting ([3]; 1.5 mM): 70.21 ± 3.38 %T | Fvo—initial plasma clotting velocity ([3]; 1.5 mM): 193.57 ± 47.31 %T/min | Lmax—maximum lysis ([3]; 1.5 mM): 66.90 ± 8.86 %T | Lvo—initial clot fibrinolysis velocity ([3]; 1.5 mM): 20.23 ± 6.46 %T/min | Sc—area under the curve of a stable clot formation ([3]; 1.5 mM): 389.89 ± 172.66 %T x min | Sf—area under the clot formation curve ([3]; 1.5 mM): 52.36 ± 6.58 %T x min | Sl (area under the fibrinolysis curve) ([3]; 1.5 mM): 159.20 ± 87.92 %T x min | S—overall potential of clot formation and fibrinolysis (CLAUC) ([3]; 1.5 mM): 602.52 ± 263.77 %T x min | Tc—clot stabilization time ([3]; 1.5 mM): 344.29 ± 149.70 s | Tf—plasma clotting time ([3]; 1.5 mM): 64.21 ± 9.03 s | Tl—fibrinolysis time ([3]; 1.5 mM): 236.57 ± 80.20 s | Tt—thrombin time ([3]; 1.5 mM): 21.60 ± 6.05 s | T—total time of the process of clot formation and fibrinolysis ([3]; 1.5 mM): 666.67 ± 234.05 s
